Laboratory results as given in publication PMC8365602 (Journal of Medicinal Chemistry, 2021).

Key:
5-LOX = molecular target: T1, 5-LOX (Homo sapiens, UniProt P09917); test: Tryptophan fluorescence spectroscopy of 5-LOX; format: binding; design: made in house; host or cells: E. coli Bl21 (DE3); details: 5-LOX titrated with compound, 0–10 μM
T1 sequence (P09917 1-674): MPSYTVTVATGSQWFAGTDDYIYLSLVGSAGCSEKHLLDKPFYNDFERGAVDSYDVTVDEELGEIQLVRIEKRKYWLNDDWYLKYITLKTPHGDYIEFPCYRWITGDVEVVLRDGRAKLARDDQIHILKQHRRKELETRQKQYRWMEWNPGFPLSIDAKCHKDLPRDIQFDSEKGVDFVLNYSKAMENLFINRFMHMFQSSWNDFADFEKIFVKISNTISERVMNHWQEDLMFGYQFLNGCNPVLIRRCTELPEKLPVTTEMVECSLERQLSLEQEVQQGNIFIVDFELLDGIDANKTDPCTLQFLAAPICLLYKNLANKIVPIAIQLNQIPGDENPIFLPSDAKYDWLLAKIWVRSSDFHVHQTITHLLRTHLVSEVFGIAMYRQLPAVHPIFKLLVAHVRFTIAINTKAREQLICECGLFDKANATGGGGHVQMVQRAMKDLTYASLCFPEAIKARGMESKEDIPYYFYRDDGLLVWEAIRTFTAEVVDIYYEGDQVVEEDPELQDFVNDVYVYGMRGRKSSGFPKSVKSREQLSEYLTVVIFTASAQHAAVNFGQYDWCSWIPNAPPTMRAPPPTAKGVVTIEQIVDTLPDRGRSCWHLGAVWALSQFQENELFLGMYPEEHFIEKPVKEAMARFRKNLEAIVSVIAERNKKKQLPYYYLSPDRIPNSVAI
Protocol: Fluorescence spectroscopy measurements on human recombinant 5-LOX (Abcam, Cambridge, U.K.) were conducted in PBS pH 7.4 at 25 °C using an Edinburgh Instruments FLS920 Series fluorescence spectrophotometer (Livingston, U.K.). […] The concentration range of 5-LOX used through the experiments was 0.3–0.6 μM. 5-LOX was titrated with a stock solution of the test compounds in dimethylformamide to yield an experimental compound concentration in the range of 0–10 μM. The final dimethylformamide concentration was kept under 5%. After each addition, the sample was incubated for 10 min before measurement. The fluorescence emission intensity values were corrected for dilution and background noise. All conditions were measured independently and in duplicate.
The fluorescence spectral shifts were analyzed by monitoring the alterations in the spectral center of mass by estimating the intensity-averaged emission wavelength (⟨λ⟩), as calculated from the following equation, where Fi is the fluorescence emission intensity at wavenumber νi, and the summation was performed over the range of measured F values [drawing 1] 1

mPGES-1 = mPGES-1 (Homo sapiens, UniProt O14684); test: mPGES-1 activity in microsomal preparations of IL-1β-treated A549 cells; format: biochemical; details: 10 μM
Chain of mPGES-1 (O14684 whole entry): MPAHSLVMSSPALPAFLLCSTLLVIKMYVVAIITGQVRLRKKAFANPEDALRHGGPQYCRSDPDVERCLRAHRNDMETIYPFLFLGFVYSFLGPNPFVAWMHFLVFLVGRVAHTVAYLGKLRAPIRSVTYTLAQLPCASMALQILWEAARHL
Protocol: Confluent cells were detached by trypsin-EDTA (GE Healthcare) and reseeded at a density of 1 × 10^4 cells/cm^2.
Differential centrifugation at 10 000g for 10 min and 174 000g for 1 h at 4 °C yielded the microsomal fraction. The pellet was resuspended in homogenization buffer and diluted in 0.1 M potassium phosphate buffer pH 7.4 containing 2.5 mM glutathione. Microsomal membranes (adjusted to 2.5–5 μg total protein) were preincubated with 27a for 15 min at 4 °C. The mPGES-1 substrate PGH2 (20 μM) was added to induce PGE2 formation.

15-LOX = 15-LOX product formation in activated PMNL; format: cell-based, human
Protocol: Freshly isolated PMNL (5 × 10^6) suspended in PBS pH 7.4 with 1 mg/mL glucose or freshly withdrawn human whole blood were preincubated with the test compounds for 10 min (or as indicated) at 37 °C. […] The reaction was stopped with an equal volume of methanol.

C/C(=C\CC/C(C)=C/CC[C@]1(C)CCc2c(C)c(O)c(C)c(C)c2O1)CCC=C(CO)CO [Compound 27a, α-amplexichromanol] was tested, and the “Shift of spectral center of mass of intrinsic Trp fluorescence of 5-LOX” value (5-LOX) was “less pronounced”, the mPGES-1 activity (mPGES-1) was “decreased mPGES-1 activity” and the 15-LOX inhibition (15-LOX; activated human PMNL) was “not substantially inhibited”. For the same molecule, the 15-LOX product formation (15-LOX; submicromolar concentrations) was “increased by a trend”.
